3 compounds from patent US20220041641A1, “QUATERNARY AMMONIUM SALTS AS INHIBITORS OF TRIMETHYLAMINE PRODUCTION” (Senda Biosciences, Inc., priority 2018, published 2022) can be followed below.

The term Cmax denotes the maximum level reached in the sampled fluid or tissue. A word on the pIC50: it is −log10 of the IC50, conventionally taken in molar units. By Papp A→B is commonly meant how fast a substance crosses the layer from the apical side. A higher Papp A→B goes with ready permeation. As a reminder, the Papp B→A is how fast a substance crosses the layer from the basolateral side. A word on the bioavailability: it is the share of a dose that reaches the circulation, judged against a reference dose that is usually intravenous. Lower therefore signals little systemic uptake.

The nature of data set [1]: in vivo. Conditions: Sprague-Dawley, rat. Further details: species or system Sprague-Dawley rats. Here is the method:
Sprague-Dawley rats (three rats per compound) were treated with a single intravenous (IV) 1 mg/kg dose or orally (PO) a single 10 mg/kg dose. Plasma concentrations of the conjugates were determined by LCMS at 5 minutes, 15 minutes, 30 minutes, 1 hour, 2 hours, 4 hours, 8 and 24 hours post compound administration. […] In addition, the plasma exposure and bioavailability of the active agent of was lower when dosed as a conjugate instead of the active agent alone.

For data set [2], the system named is enzymatic activity in fecal matter. Kind of data set: Inhibition of enzymatic activity in fecal matter. It is filed as cell-based. Conditions: d9-choline 1 mM, 16 hours at 37° C., anaerobic, d9-TMA by LCMS. Here is the method: Inhibition of enzymatic activity in fecal matter was determined by adding a substrate (d9-choline, 1 mM final concentration) and a compound in a range of concentrations in order to determine an IC50. After incubation for a designated 16 hours at 37° C. in anaerobic conditions, samples were be prepared for LCMS analysis, and the amount of d9-TMA produced was determined using LCMS analysis as in the Examples above.

Data set [3] deals with CutC from Proteus mirabilis (Proteus mirabilis, UniProt B4EYG1). Description: Cell-based assay for TMA production from a native producer (P. mirabilis). The settings on record: d9-TMA from 1 mM d9-choline, 5 h, 37° C.; value 10 given when no fit or % TMA remaining at 10 μM higher than 15%; read-out: Average IC50 Whole cell P. mirabilis. The method in brief: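 Overnight anaerobic cultures of P. mirabilis or C. sporogenes, grown in BHI with 1 mM choline, were diluted and given 1 mM (trimethyl-d9)-choline plus compound at 10 μM final. After 5 h at 37° C., d9-TMA was quantified by LCMS.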

The nature of data set [4]: Pharmacokinetic study of colon contents and plasma after oral dose of conjugate. It counts as in vivo, male C57B3L/6 mice. Conditions: male, C57B3L/6, mouse, in vivo, po. How it is done:
To confirm that the active agent component of the conjugate is released in the gastrointestinal tract, a pharmacokinetic study was conducted in male C57B3L/6 mice examining conjugate and active agent of concentrations in both the colon contents and plasma after oral dose of conjugate. Conjugate and active agent of were quantified by LCMS at 0 (pre-dose), 0.25, 0.5, 1, 2, 4, 6, 8, 12, and 24 hours post-dose of compound.

A short description of data set [5]: Caco-2 permeability assay. It counts as in vitro ADME. Conditions: human, Caco-2, pH 7.4. How it is done:
Preparation of Caco-2 Cells: 50 μL and 25 mL of cell culture medium were added to each well of the Transwell insert and reservoir, respectively. The HTS transwell plates were incubated at 37° C., 5% CO2 for 1 hour before cell seeding. […] Cell culture medium was replaced every other day, beginning no later than 24 hours after initial plating.
Assessment of Cell Monolayer Integrity: Medium was removed from the reservoir and each Transwell insert and replaced with prewarmed fresh culture medium. Transepithelial electrical resistance (TEER) across the monolayer was measured using Millicell Epithelial Volt-Ohm measuring system (Millipore, USA). The Plate was returned to the incubator once the measurement was done. The TEER value was calculated according to the following equation: […]
Preparation of Solutions: 2 mM stock solutions in DMSO of control compounds were prepared and diluted with HBSS (10 mM HEPES, pH 7.4) to get 10 μM working solution. 0.2 mM stock solutions of test compounds in DMSO were prepared and diluted with HBSS (10 mM HEPES, pH 7.4 with 0.5% BSA) to get 1 μM working solution. Metoprolol, erythromycin and cimetidine were used as control compounds.
The Caco-2 plate was removed from the incubator. The monolayer was washed twice with pre-warmed HBSS (10 mM HEPES, pH 7.4). The plate was incubated at 37° C. for 30 minutes. To determine the rate of drug transport in the apical to basolateral direction, 125 μL of the working solution was added to the Transwell insert (apical compartment). A 50 μL sample was transferred immediately from the apical compartment to 200 μL of acetonitrile containing IS (100 nM alprazolam, 200 nM Caffeine and 100 nM tolbutamide) in a new 96-well plate as the initial donor sample (A-B) and it was vortexed at 1000 rpm for 10 minutes. The wells in the receiver plate (basolateral compartment) were filled with 235 μL of transport buffer. To determine the rate of drug transport in the basolateral to apical direction, 285 μL of the working solution were added to the receiver plate wells (basolateral compartment). A 50 μL sample was transferred immediately from the basolateral compartment to 200 μL of acetonitrile containing IS (100 nM alprazolam, 200 nM Caffeine and 100 nM tolbutamide) in a new 96-well plate as the initial donor sample (B-A) and it was vortexed at 1000 rpm for 10 minutes. The Transwell insert (apical compartment) was filled with 75 μL of transport buffer. The apical to basolateral direction and the basolateral to apical direction need to be done at the same time. The plates were incubated at 37° C. for 2 hours. At the end of the incubation, 50 μL samples from donor sides (apical compartment for Ap→Bl flux, and basolateral compartment for B1→Ap) and receiver sides (basolateral compartment for Ap→Bl flux, and apical compartment for B1→Ap) were transferred to wells of a new 96-well plate, followed by the addition of 4 volume of acetonitrile containing IS (100 nM alprazolam, 200 nM Caffeine and 100 nM tolbutamide). Samples were vortexed for 10 minutes, 50 μL samples were transferred to wells of a new 96-well plate, followed by the addition of 50 μL Hepes and 200 μL IS. All samples were vortexed for 10 minutes, and then centrifuged at 3,220 g for 40 minutes. An aliquot of 150 μL of the supernatant was mixed with an appropriate volume of ultra-pure water before LC-MS/MS analysis.
Apparent permeability (Papp) can be calculated for drug transport assays using the following equation: […]
Papp is apparent permeability (cm/s×10^−6);
Papp (B-A) indicates the apparent permeability coefficient in basolateral to apical direction, and
Papp (A-B) indicates the apparent permeability coefficient in apical to basolateral direction.
(Caco-2 monolayers are a common model of the intestinal barrier.)

pIC50: −log10 of the molar value. Bounds are passed on as bounds.

Sequence of CutC from Proteus mirabilis (B4EYG1 entry or part of it): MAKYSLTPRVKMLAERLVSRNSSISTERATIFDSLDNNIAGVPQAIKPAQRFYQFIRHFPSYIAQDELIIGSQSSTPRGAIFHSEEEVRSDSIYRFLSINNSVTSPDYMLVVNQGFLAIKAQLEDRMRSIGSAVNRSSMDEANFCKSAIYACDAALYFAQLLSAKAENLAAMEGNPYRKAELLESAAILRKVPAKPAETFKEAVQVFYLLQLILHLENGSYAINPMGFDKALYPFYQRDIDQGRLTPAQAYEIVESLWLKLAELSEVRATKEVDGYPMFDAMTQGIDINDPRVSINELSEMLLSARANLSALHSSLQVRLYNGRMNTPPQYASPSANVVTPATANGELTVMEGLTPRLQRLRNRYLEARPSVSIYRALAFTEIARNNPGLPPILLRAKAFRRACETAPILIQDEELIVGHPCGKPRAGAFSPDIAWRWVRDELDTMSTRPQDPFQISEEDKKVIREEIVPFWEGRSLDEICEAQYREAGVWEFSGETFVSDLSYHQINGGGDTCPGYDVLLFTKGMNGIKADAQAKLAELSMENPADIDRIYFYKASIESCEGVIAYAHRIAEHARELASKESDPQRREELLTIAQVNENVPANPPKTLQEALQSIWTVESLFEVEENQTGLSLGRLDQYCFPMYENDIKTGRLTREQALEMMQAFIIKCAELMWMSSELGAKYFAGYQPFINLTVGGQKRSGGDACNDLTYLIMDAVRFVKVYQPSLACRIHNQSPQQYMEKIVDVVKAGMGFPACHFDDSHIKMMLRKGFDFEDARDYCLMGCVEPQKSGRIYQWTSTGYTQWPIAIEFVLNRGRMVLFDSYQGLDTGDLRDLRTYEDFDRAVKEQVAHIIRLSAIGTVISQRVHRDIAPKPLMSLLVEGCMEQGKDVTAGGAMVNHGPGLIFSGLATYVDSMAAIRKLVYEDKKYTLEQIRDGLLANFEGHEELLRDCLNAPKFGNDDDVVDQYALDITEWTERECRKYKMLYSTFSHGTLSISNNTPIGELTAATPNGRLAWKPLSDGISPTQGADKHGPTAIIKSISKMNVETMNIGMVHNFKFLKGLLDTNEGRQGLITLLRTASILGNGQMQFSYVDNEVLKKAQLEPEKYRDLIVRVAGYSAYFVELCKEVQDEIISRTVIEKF
Sequence of CutC from Proteus mirabilis (B4EYG0 entry or part of it, further chain): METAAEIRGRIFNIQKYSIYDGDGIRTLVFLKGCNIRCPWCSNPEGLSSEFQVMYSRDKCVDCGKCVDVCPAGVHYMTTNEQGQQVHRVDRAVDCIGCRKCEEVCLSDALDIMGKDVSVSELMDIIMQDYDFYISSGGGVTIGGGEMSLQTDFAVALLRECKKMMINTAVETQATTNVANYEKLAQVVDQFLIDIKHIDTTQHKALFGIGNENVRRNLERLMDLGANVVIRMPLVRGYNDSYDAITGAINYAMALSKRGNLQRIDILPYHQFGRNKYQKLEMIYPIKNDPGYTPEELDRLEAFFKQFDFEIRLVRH

In data set [1] (iv, 1 mg/kg), `CC(=O)OC[C@@H]1O[C@H](OCC[N+](C)(C)CCl)[C@@H](OC(C)=O)[C@H](OC(C)=O)[C@H]1OC(C)=O` (stereo in doubt) [Compound 78, N-(chloromethyl)-N,N-dimethyl-2-(((2S,3S,4R,5S,6S)-3,4,5-triacetoxy-6-(acetoxymethyl)tetrahydro-2H-pyran-2-yl)oxy)ethan-1-aminium Iodide] returned a Cmax of 6 nM. Besides, the pIC50 was 6.41 in data set [2] and not above 5.00 in data set [3].
As for `CC(=O)OC[C@@H]1O[C@H](OCC[N+](C)(C)CF)[C@@H](OC(C)=O)[C@H](OC(C)=O)[C@H]1OC(C)=O` (stereo in doubt) [Compound 79, N-(fluoromethyl)-N,N-dimethyl-2-(((2S,3S,4R,5S,6S)-3,4,5-triacetoxy-6-(acetoxymethyl)tetrahydro-2H-pyran-2-yl)oxy)ethan-1-aminium Iodide], the peak concentration (Cmax) in data set [1] (iv, 1 mg/kg) was 1 nM; in data set [1] (po, 10 mg/kg) it was 50 nM. The figures for the pIC50 in data set [2] and in data set [3] were 5.93 and not above 5.00, respectively.
Compound `CC(=O)OCC1OC(OCC[N+](C)(C)CF)C(OC(C)=O)C(OC(C)=O)C1OC(C)=O.[I-]` (stereo in doubt) [Compound 79, N-(fluoromethyl)-N,N-dimethyl-2-(((2S,3S,4R,5S,6S)-3,4,5-triacetoxy-6-(acetoxymethyl)tetrahydro-2H-pyran-2-yl)oxy)ethan-1-aminium Iodide] yielded a Cmax in data set [4] of 5 nM. In data set [5], this compound returned an apical-to-basolateral permeability (Papp A→B) at 2 h, 1 µM of 0.214 ×10⁻⁶ cm/s and a Papp B→A at 2 h, 1 µM of 0.255 ×10⁻⁶ cm/s. In addition, the highest concentration (Cmax) in data set [1] (iv, 1 mg/kg) came to 13600 nM. In addition, in data set [1] (po, 10 mg/kg), the “% F” value amounted to 1.60%, the concentration peaked (Cmax) at 260 nM and the bioavailability turned out to be 2.16%.
